Laboratory results: patent US12492403B2, “Aptamers and the use thereof in the treatment of cancer” (FUNDACIÓN PARA LA INVESTIGACIÓN BIOMÉDICA DEL HOSPITAL …, priority 2018, dated 2025)

Columns and labels:
MCF7 cells [1] = assay: MTT activity assay, aptamers transfected with Lipofectamine 2000; assay type: cell-based, human
Protocol: (§1) FIG. 3. Effect of the aptamers on MTT activity of MCF7 and MDA-MB-231 cells. The cells were seeded in 96-well plates at a density of 10^4 cells/well. After 16-24 hours, they were transfected with aptamers apMNKQ1, apMNKQ2, apMNKQ3, and apMNKQ4 at 250 nM for 48 hours after which MTT activity assays were performed. The bars represent the mean±SEM of 3-6 independent experiments (*p<0.05, **p<0.01, and ***p<0.001 with respect to the control aptamer AT).
(§2) FIGS. 8A-8C. Effect of aptamer apMNKQ2 on MTT activity of breast cell lines. MCF7, MDA-MB-231, and MDA-MB-468 cells were seeded in 96-well plates at a density of 10^4 cells/well. […] The graphs represent the means±SEM of 3 independent experiments (*p<0.05, **p<0.01, and ***p<0.001 with respect to the control AT).
(§3) The Lipofectamine™ 2000 system (Invitrogen, USA) was used to treat cells with the different aptamers. To prepare the DNA-lipofectamine complex, lipofectamine and DNA were separately diluted in opti-MEM (Gibco, USA) and left to incubate at room temperature for 5 minutes. They were then mixed to form lipofectamine-DNA complexes and incubated for 20 minutes at room temperature. Finally, the mixture was added to the cells that had been washed twice with antibiotic-free medium to prevent the interference thereof with lipofectamine. The cells were incubated at 37° C. for 5 hours, after which the reagent was removed and a complete medium was added.
(§4) MTT activity. The cells were seeded in 96-well plates and after having been transfected, the culture medium was removed and 100 μL/well of MTT at 1 mg/ml in culture medium were added. The plates were incubated for 90 minutes in an incubator with a moisture-saturated environment at 37° C. and 5% CO2/[…] and 100 μL/well of a lysis solution (10% SDS and 10 mM HCl) were added for dissolving the crystals. After 48 hours, the reduction of MTT was determined by means of spectrophotometry in Infinite F200 (TECAN, Switzerland) at 540 nm.
(§5) The results were expressed as the percentage of viability with respect to the control or in absorbance units.

MDA-MB-231 cells [2] = assay: as above; assay type: cell-based, human
Protocol: as §1, §2, §3, §4, §5

MCF7 cells [3] = assay: Colony formation assay; assay type: cell-based, human; details: MCF7, 150 nM, colonies quantified 9-12 days after seeding
Protocol: (§6) FIGS. 12A & 12B. Effect of apMNKQ2 on cell clonogenicity. MCF7, MDA-MB-231, and MDA-MB-468 cells were seeded in 24-well plates at a density of 3×10^4 cells/well and transfected at 24 hours with apMNKQ2 at the previously established working concentrations (FIG. 12A). After 24 hours, the cells were collected, counted, and seeded in 6-well plates with 1000 cells/well for MCF7 and MDA-MB-231 and with 5000 cells/well for MDA-MB-468 (FIG. 12B). The boxes represent the mean±the maximum and minimum of 4-5 independent experiments (*p<0.05 and **p<0.01 with respect to the control aptamer AT).
(§7) To perform these assays, 3×10^4 cells/well were seeded in 24-well plates with every 2 wells being considered an experimental point. At 16-24 hours, the cells were transfected with apMNKQ2 or the control aptamer. At 16-24 hours post-transfection, the cells of every two wells were pooled, resuspended in the corresponding medium, counted, and after performing the suitable dilutions, reseeded 1×10^3 or 5×10^3 cells/well in duplicate in 6-well plates. These plates were left in the incubator with a moisture-saturated environment at 37° C. and 5% CO2/[…] for 8-9 days. After this time, the colonies were fixed with methanol (Merck, Germany) for 10 minutes, stained with 0.02% giemsa (Sigma-Aldrich, USA) for 30 minutes, washed with water to eliminate the remaining dye, and left to dry at room temperature. To count the colonies, a colony counter pen (Heathrow Scientific® LLC, United Kingdom) and a magnifying glass (1.75×) (Bel-Art Scienceware, USA) were used. The results were expressed in number of colonies and normalized in percentage with respect to the control.
(§8) For these assays, 1000 cells/well in 6-well plates had previously been established for the MCF7 and MDA-MB-231 lines, however, the PE of the MDA-MB-468 cells was lower (11.5±5.3%), so 5000 cells were seeded. The cells were transfected with apMNKQ2 and the control AT, and collected and reseeded at 24 hours to perform the colony formation assay. The colonies were quantified 9-12 days after seeding. […]

MDA-MB-231 cells [4] = assay: Colony formation assay; assay type: cell-based, human; details: MDA-MB-231, 400 nM, colonies quantified 9-12 days after seeding
Protocol: as §6, §7, §8

MDA-MB-468 cells = assay: Colony formation assay; assay type: cell-based, human; details: MDA-MB-468, 50 nM, colonies quantified 9-12 days after seeding
Protocol: as §6, §7, §8

4T1 cells = assay: MTT activity assay in 4T1 cells; assay type: cell-based, mouse; details: 4T1 cells, 0, 250, 500 and 1000 nM, 48 hours
Protocol: FIG. 21A-21E. In vivo efficacy of apMNKQ2 in a mouse metastatic model with an orthotopic xenograft of 4T1 cells. (A) Effect of apMNKQ2 aptamer on the proliferation of 4T1 cells (mouse breast tumor line). 4T1 cells were seeded in p96 at a density of 1.5×10^3 cells/well. […] The graph (FIG. 21A) represents the means±SEM of 3 independent experiments. (B) Effect of apMNKQ2 aptamer on migration and invasion of 4T1 cells. Cells were seeded in p6 at a density of 2×10^5 cells/well and transfected with 500 nM apMNKQ2 at 24 hours. At 6 hours they were deprived of serum, and after 24 hours they were collected and re-seeded (4×10^4 cells/well) in a transwell […]. At 24 hours (migration) or 48 h (invasion), the transwell membranes were stained with Hoechst and the cells that had passed through the fluorescence microscopy were quantified. Values (FIG. 21B) represent the mean±SEM of 2-3 independent experiments. In vivo efficacy of apMNKQ2 in a mouse metastatic model with an orthotopic xenograft of 4T1 cells. […] The number of metastases is analyzed by the reverse staining method (with Chinese ink) and the metastases grouped according to their size in four groups (0.5, 1, 2 and >2). […]
MTT activity. […] After 48 hours, the reduction of MTT was determined by means of spectrophotometry in Infinite F200 (TECAN, Switzerland) at 540 nm.

## 5′TGGGGTGGGCGGGCGGGGGTGGGGGTGGT-3′ (DNA, backbone and methylation of C not given here; further chemistry not fully specified) [apMNKQ2]
MCF7 cells [1]; MCF7, MTT activity at 48 hours, 0 to 500 nM
  GI50: 42 nM
MCF7 cells [1]; MCF7, aptamer 250 nM, 48 hours after transfection
  cell proliferation (MTT activity) reduced to: 51%
MDA-MB-231 cells [2]; MDA-MB-231, MTT activity at 48 hours, 0 to 500 nM
  GI50: 144 nM
MDA-MB-231 cells [2]; MDA-MB-231, aptamer 250 nM, 48 hours after transfection
  cell proliferation (MTT activity) reduced to: 36%
MCF7 cells [3]
  inhibition in colony formation with respect to control aptamer AT: statistically significant
MDA-MB-231 cells [4]
  inhibition in colony formation with respect to control aptamer AT: statistically significant
MDA-MB-468 cells
  inhibition in colony formation with respect to control aptamer AT: statistically significant
4T1 cells
  cell proliferation as measured by MTT activity: does not affect cell proliferation
